Measured values as given in patent US20230102503A1, “BIOMARKERS FOR OXYTOCIN RECEPTOR ANTAGONIST THERAPY” (ObsEva S.A., priority 2020, published 2023).

Columns and labels:
uterine contractions = test: Uterine contractions after single dose versus placebo; type: in vivo, human
CYP3A4 = CYP3A4 (Homo sapiens, UniProt P08684); test: metabolism by CYP3A4 isoform; type: in vitro ADME
Procedure: (§1) At five time points over the course of a 45 minute experiment, the compounds were analyzed by LC-MS/MS. The percentage of each compound remaining at each time point, along with the metabolic half-lives of each compound in the presence of each cytochrome P450 isoform, are indicated in Tables 10-12, below.

[1] = crystal form with XRPD peaks of Table 1; cited from earlier work
[2] = dispersible tablet formulations; cited from earlier work
[3] = tested on: endometrial RNA transcript expression (DPP4, CNTNAP3, CNTN4, CXCL12, TNXB, CTSE, OLFM4, KRT5, KRT6A, IDO2); test: RNA-Seq assay of endometrial tissue mRNA expression before and after administration; type: in vivo, human
Procedure: Using an RNA-Seq assay, each subject's mRNA expression level of a variety of genes, including DPP4, CNTNAP3, CNTN4, CXCL12, TNXB, CTSE, OLFM4, KRT5, KRT6A, and IDO2, was then assessed to determine whether the expression of each gene increased, decreased, or underwent no significant change due to administration of the compound or placebo.

endometrial perfusion = test: Endometrial perfusion parameters (VI, FI, VFI) after single dose; type: in vivo, human; conditions: for increase in median endometrial VFI: between pre-dose and 24-hour post-dose
[4] = plasma concentration of compound (II) in clinical trial of Example 4; type: in vivo, human; conditions: oral administration of either the 900 mg or the 1,800 mg dose
Procedure: (§2) Particularly, subjects were pre-treated with estradiol valerate at a dosage of 2 mg administered 3 times per day (TID) for 16 days. Administration of estradiol valerate was followed by vaginal progesterone at a dosage of 200 mg administered TID.

[5] = tested on: healthy female volunteers; test: uterine contractions and endometrial blood flow in clinical trial of Example 4; type: in vivo, human; conditions: single oral dose of 900 mg or 1,800 mg
Procedure: as §2
These assessments included measurements of uterine contractions by ultrasound and uterine perfusion by a 3D-power Doppler technique.
Mean and median changes in uterine contraction frequency and endometrial vascularity indices (particularly, endometrial flow index (FI), vascularity index (VI), and vascularity flow index (VFI)) were calculated. […] Differences in endometrial mRNA expression were identified and assessed for statistical significance.

[6] = tested on: spontaneous uterine contractions; conditions: same vehicle, same model organism; cited from earlier work
CYP2D6 = CYP2D6 (Homo sapiens, UniProt P10635); test: metabolism by CYP2D6 isoform; type: in vitro ADME
CYP2D6, sequence (P10635 whole entry, canonical isoform): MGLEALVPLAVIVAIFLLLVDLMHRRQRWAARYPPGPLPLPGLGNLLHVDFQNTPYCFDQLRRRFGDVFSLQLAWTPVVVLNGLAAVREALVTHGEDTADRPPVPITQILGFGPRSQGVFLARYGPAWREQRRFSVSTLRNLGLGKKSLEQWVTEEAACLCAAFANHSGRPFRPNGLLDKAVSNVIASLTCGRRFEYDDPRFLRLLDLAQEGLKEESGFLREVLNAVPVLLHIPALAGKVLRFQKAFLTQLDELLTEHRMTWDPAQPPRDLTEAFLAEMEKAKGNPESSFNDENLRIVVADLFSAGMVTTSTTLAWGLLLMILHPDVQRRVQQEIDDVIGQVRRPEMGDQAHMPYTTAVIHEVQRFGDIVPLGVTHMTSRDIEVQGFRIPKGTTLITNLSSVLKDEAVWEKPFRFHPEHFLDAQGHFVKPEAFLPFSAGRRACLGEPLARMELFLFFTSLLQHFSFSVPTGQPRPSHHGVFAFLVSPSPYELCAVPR
Procedure: as §1

CYP2C19 = CYP2C19 (Homo sapiens, UniProt P33261); test: metabolism by CYP2C19 isoform; type: in vitro ADME
CYP2C19, sequence (P33261 whole entry, canonical isoform): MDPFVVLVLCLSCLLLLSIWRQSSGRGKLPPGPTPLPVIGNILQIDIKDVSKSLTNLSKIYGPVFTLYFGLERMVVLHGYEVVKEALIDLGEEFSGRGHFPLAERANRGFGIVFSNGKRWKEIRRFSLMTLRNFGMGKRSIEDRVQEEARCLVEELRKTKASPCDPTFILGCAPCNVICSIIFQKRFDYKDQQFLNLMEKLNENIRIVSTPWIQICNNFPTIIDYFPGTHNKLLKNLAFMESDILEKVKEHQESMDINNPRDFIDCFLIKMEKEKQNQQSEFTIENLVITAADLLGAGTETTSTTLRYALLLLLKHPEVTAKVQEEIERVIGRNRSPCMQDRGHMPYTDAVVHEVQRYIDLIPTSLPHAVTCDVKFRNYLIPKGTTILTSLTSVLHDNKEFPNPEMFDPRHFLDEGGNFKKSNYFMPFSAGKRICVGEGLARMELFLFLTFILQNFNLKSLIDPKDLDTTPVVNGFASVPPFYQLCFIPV
Procedure: as §1

[7] = 1,800 mg dose, within 24 hours of administration

CYP3A4, sequence (P08684 whole entry, canonical isoform): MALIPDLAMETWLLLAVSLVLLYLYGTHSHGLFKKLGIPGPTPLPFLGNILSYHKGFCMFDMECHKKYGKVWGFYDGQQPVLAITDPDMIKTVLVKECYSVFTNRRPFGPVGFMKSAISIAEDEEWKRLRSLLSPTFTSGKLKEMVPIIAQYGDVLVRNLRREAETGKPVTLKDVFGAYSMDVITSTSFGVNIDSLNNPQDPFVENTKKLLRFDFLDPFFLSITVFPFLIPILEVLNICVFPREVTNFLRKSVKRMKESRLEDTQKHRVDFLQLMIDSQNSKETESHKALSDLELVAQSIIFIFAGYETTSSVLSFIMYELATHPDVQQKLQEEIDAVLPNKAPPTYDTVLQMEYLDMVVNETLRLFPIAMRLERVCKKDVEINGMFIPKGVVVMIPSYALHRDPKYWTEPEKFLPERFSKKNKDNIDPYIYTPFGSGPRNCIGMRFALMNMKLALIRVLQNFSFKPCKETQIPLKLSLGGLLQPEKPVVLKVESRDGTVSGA

For `CO/N=C1/C[C@@H](CO)N(C(=O)c2ccc(-c3ccccc3C)cc2)C1` [Compound (II), (3Z,5S)-5-(hydroxymethyl)-1-[(2′-methyl-1,1′-biphenyl-4-yl)carbonyl]pyrrolidin-3-one O-methyloxime], the “proportion of subjects showing less than one uterine contraction per minute versus placebo” value (uterine contractions; 900 mg dose, 24-hour time point only (p=0.0437)) was “significant difference”, the “number of uterine contractions per minute versus placebo” value (uterine contractions; 900 mg dose, all time points (p>0.10)) was “no significant difference” and the “proportion of subjects showing less than one uterine contraction per minute versus placebo” value (uterine contractions; 1,800 mg dose, 8-hour time point (p=0.0121)) was “significance was seen”. For the same compound, the “number of uterine contractions per minute versus placebo” value (uterine contractions; 1,800 mg dose, from the 4-hour time point onwards (p=0.0923 at 4 h, p=0.0081 at 8 h)) was “contraction-reducing effects were observed”, the “preferential metabolism by cytochrome P450 isoform” value (from here on “preferential metabolism”) (CYP3A4) was “preferentially metabolized by the CYP3A4 isoform of cytochrome P450” and the “stability of crystal form” value [1] was “enhanced stability to aqueous media and physical stress”. For the same compound, the “absorption kinetics upon administration to a subject” value [2] was “rapid absorption kinetics”, the “differences in mRNA expression in endometrial biopsy tissue compared to placebo” value ([3]; 900 mg dose) was “No differences” and the “number of mRNAs downregulated” value [3, 7] was 5. The “number of mRNAs upregulated” value [3, 7] was 5, the “number of mRNAs significantly differentially expressed” value ([3]; 1,800 mg dose, within 24 hours of administration, adjusted p<0.05) was 10 and the “Endometrial Fl” value (endometrial perfusion; 900 mg dose, 24-hour time point (p=0.0502)) was “significant increases”. The “increase in median endometrial VFI” value (endometrial perfusion; 900 mg dose) was “approximately 3 fold”, the “endometrial VI versus placebo” value (endometrial perfusion; 1,800 mg dose, 8-hour time point (p=0.0714)) was “substantial increase” and the “Endometrial Fl” value (endometrial perfusion; 1,800 mg dose, 24-hour time point (p=0.0625)) was “significant increases”. The “increase in median endometrial VFI” value (endometrial perfusion; 1,800 mg dose) was “approximately 3 fold”, the “time to maximum concentration” value [4] was “about 4 hours” and the “effect on uterine contractions” value ([5]; FIG. 7) was “decrease uterine contractions”. For the same compound, the “effect on endometrial blood flow (FI, VI, VFI)” value ([5]; FIGS. 8-10) was “marked and sustained increase in endometrial blood flow” and the “inhibitory activity with respect to uterine contraction, compared with (3E) diastereomer” value [6] was “markedly higher than that of the substantially pure (3E) diastereomer”.
In the case of `CO/N=C1\C[C@@H](CO)N(C(=O)c2ccc(-c3ccccc3C)cc2)C1` [(3E) isomer, (3E,5S)-5-(hydroxymethyl)-1-[(2′-methyl-1,1′-biphenyl-4-yl)carbonyl]pyrrolidin-3-one O-methyloxime], the “preferential metabolism” value (CYP2D6) is reported as “preferentially metabolized by the CYP2D6 and CYP2C19 isoforms of cytochrome P450” and the “preferential metabolism” value (CYP2C19) is reported as “preferentially metabolized by the CYP2D6 and CYP2C19 isoforms of cytochrome P450”.
